The target in one assay is IKBKB (IKK beta) (Homo sapiens, UniProt O14920). In words: Kinase profiling (SelectScreen), ZLYTE. It counts as biochemical. As to the method: (§1) Kinase profiling was conducted by the SelectScreen Kinase Profiling Services (Thermo Fisher), using Z′-LYTE, Adapta, or LanthaScreen Eu Kinase Binding Assay for different kinases. The kinome phylogenetic tree was generated using the KinMap web portal.

The target of a further assay is RET (Homo sapiens, UniProt P07949). In words: Kinase profiling (SelectScreen), ZLYTE. The class given is biochemical. Here is the method:
as §1

Another assay deals with RPS6KA3 (RSK2) (Homo sapiens, UniProt P51812). Description: Kinase profiling (SelectScreen), ZLYTE. It counts as biochemical. As to the method:
as §1

The target of a further assay is NTRK2 (TRKB) (Homo sapiens, UniProt Q16620). Description: Kinase profiling (SelectScreen), ZLYTE. The class given is biochemical. As to the method:
as §1

In the next assay the target is EGFR (ErbB1) (Homo sapiens, UniProt P00533). In words: Kinase profiling (SelectScreen), ZLYTE. The class given is biochemical. As to the method: as §1
A further assay deals with SGKL (SGK3) (Homo sapiens, UniProt Q96BR1). In words: Kinase profiling (SelectScreen), ZLYTE. It counts as biochemical. As to the method:
as §1

The target of another assay is IKBKE (IKK epsilon) (Homo sapiens, UniProt Q14164). In words: Kinase profiling (SelectScreen), ZLYTE. It counts as biochemical. Here is the method:
as §1

A further assay concerns the target PRKCB1 (PKC beta I) (Homo sapiens, UniProt P05771). In words: Kinase profiling (SelectScreen), ZLYTE. It counts as biochemical. As to the method: as §1
For the next assay, the target named is KDR (VEGFR2) (Homo sapiens, UniProt P35968). Description: Kinase profiling (SelectScreen), ZLYTE. It counts as biochemical. As to the method: as §1
The target in the next assay is TAOK2 (TAO1) (Homo sapiens, UniProt Q9UL54). Description: Kinase profiling (SelectScreen), ZLYTE. It counts as biochemical. As to the method: as §1
A further assay deals with MAPK8 (JNK1) (Homo sapiens, UniProt P45983). Description: Kinase profiling (SelectScreen), ZLYTE. It counts as biochemical. The following applies: IA107 at 5 μM; ATP 100 μM. As to the method:
as §1

Another assay deals with MAPKAPK2 (Homo sapiens, UniProt P49137). Description: Kinase profiling (SelectScreen), ZLYTE. It counts as biochemical. Here is the method: as §1
A further assay addresses EPHB4 (Homo sapiens, UniProt P54760). Description: Kinase profiling (SelectScreen), ZLYTE. It counts as biochemical. As to the method: as §1
For assay [1], the system named is IRE1α transcription level in A549 cells. In words: RT-qPCR of IRE1α transcription level, A549. It counts as cell-based, human. To be noted: A549 cells. As to the method:
(§2) A549 cells, HCT 116 cells, and HT-29 cells were collected and seeded in 6-well plates at a density of 5 × 10^5 cells per well and cultured overnight to attach, then treated with compound or DMSO for 2 h, then 0.5 μg/mL final concentration of tunicamycin (Tm, MP Biomedi, 0215002805) were added to induce the ER stress for 2 h. After treatment, total RNA was purified using an RNeasy mini kit (Qiagen, 74106). 500 ng of total RNA was used for reverse transcription using the High-Capacity cDNA Reverse Transcription Kits (Thermo Fisher, 4368814). cDNA was diluted 1: 5 using RNase-free water, and 1 μL CDNA was used for each qPCR reaction. The qPCR was performed using PowerUp™ SYBR™ Green Master Mix (Thermo Fisher, A25742) with 10 µL reaction volume using Bio-Rad CFX96 Real-Time PCR Detection System following the standard cycling mode (primer Tm ≥ 60 °C) on the manufacturer’s protocol. Data was analyzed using the 2^- ΔΔCt method. The primers used are listed in Supplementary Table S3. The inhibition % was calculated by using the equation: inhibition% = 100× (normalized Tm control - normalized of the sample)/(normalized Tm control - normalized DMSO control). Tm control: Cells treated with tunicamycin; DMSO control: Cells treated with DMSO only.
(In qPCR the cycle at which signal appears reflects the starting amount.)

For assay [2], the system named is IRE1α transcription level in HT-29 cells. Description: RT-qPCR of IRE1α transcription level, HT-29. It counts as cell-based, human. To be noted: HT-29 cells. As to the method:
as §2

Assay [3] relates to XBP1 mRNA splicing in HCT 116 cells. In words: RT-qPCR of ER stress-induced XBP1 mRNA splicing, HCT 116. It counts as cell-based, human. The following applies: HCT 116 cells. Here is the method: as §2

Entries after “also recorded” stand apart in the source; their conditions may differ.

Sequence of KDR (VEGFR2) (P35968 20-1356): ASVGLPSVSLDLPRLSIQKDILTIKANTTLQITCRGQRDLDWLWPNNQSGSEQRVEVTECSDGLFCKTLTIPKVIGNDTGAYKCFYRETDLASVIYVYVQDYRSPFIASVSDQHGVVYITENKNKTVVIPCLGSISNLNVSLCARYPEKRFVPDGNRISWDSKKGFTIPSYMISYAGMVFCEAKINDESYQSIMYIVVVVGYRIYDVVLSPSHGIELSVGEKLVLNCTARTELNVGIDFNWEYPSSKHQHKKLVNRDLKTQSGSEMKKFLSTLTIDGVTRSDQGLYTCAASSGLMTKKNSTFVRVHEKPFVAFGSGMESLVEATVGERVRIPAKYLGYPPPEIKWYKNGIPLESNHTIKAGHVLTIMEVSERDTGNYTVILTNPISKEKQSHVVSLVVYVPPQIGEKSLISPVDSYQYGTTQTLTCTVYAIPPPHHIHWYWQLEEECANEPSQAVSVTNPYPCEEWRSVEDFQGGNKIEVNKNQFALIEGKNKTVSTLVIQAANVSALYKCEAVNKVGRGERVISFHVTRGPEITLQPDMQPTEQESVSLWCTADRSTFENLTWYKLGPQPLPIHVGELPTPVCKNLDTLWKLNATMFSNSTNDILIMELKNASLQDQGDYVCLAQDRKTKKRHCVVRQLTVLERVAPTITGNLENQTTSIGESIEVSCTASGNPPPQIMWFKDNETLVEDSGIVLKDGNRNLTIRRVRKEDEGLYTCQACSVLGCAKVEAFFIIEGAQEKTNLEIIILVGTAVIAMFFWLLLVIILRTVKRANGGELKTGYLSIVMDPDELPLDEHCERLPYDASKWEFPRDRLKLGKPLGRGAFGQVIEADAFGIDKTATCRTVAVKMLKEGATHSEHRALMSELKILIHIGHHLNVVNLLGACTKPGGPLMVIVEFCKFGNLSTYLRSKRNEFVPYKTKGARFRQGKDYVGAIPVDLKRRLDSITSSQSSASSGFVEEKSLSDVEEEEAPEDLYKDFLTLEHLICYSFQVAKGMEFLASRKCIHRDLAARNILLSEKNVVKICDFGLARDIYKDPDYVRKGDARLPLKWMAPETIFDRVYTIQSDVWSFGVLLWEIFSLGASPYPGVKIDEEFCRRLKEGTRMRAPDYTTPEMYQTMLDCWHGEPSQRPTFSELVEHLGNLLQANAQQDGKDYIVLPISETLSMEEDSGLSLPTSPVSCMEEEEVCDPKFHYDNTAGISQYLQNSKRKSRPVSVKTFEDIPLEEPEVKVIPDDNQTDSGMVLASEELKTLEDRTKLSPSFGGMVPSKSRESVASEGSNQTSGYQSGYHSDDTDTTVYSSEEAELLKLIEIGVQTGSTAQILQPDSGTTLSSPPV
Sequence of EGFR (ErbB1) (P00533 25-1210): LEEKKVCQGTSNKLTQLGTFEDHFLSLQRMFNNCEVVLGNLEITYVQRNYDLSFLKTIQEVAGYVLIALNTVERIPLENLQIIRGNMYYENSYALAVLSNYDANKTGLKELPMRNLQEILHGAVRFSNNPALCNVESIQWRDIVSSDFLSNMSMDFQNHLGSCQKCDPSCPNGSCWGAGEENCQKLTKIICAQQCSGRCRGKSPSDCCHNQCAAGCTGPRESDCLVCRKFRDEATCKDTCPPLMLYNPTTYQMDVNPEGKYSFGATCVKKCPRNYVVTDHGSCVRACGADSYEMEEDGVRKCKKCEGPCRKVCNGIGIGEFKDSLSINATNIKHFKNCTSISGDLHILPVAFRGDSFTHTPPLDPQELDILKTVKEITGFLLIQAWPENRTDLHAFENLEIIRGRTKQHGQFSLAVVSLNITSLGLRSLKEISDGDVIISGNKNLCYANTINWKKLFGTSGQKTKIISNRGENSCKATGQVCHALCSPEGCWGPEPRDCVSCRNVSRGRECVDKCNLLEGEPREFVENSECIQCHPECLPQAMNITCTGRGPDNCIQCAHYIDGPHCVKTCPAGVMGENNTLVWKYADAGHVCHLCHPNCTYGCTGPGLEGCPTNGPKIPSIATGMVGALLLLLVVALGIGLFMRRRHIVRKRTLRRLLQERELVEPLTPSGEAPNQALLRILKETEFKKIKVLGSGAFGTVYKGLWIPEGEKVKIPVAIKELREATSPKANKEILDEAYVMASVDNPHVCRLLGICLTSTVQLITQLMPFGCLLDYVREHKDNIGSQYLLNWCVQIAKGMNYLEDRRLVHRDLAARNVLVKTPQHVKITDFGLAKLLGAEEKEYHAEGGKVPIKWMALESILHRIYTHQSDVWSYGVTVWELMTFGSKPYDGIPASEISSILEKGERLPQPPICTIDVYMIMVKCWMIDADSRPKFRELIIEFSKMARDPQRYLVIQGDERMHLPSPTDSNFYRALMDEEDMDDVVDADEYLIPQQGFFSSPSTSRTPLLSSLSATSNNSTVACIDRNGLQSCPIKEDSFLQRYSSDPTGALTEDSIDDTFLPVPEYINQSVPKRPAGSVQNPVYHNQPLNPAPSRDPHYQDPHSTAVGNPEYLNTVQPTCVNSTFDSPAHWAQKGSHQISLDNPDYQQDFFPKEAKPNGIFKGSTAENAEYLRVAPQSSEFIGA
Sequence of NTRK2 (TRKB) (Q16620 32-822): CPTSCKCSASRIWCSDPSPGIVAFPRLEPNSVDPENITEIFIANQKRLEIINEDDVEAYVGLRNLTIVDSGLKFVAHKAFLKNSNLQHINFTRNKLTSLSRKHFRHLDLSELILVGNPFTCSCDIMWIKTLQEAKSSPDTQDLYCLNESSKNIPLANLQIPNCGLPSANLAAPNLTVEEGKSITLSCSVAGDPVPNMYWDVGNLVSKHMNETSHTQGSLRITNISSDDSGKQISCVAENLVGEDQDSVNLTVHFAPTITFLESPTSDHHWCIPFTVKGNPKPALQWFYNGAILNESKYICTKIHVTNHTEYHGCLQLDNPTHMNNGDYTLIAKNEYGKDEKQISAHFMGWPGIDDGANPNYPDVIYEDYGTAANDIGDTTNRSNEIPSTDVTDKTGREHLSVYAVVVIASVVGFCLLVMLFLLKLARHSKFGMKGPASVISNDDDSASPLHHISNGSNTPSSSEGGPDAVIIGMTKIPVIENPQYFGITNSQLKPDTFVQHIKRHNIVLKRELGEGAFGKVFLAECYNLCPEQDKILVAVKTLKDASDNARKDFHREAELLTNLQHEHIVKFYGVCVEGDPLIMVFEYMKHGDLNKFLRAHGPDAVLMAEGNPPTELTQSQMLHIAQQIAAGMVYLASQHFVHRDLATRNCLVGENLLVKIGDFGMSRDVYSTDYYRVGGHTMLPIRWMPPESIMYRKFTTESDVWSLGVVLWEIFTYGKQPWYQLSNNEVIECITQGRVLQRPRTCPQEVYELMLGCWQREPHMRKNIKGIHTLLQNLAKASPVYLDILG
Sequence of TAOK2 (TAO1) (Q9UL54 whole entry): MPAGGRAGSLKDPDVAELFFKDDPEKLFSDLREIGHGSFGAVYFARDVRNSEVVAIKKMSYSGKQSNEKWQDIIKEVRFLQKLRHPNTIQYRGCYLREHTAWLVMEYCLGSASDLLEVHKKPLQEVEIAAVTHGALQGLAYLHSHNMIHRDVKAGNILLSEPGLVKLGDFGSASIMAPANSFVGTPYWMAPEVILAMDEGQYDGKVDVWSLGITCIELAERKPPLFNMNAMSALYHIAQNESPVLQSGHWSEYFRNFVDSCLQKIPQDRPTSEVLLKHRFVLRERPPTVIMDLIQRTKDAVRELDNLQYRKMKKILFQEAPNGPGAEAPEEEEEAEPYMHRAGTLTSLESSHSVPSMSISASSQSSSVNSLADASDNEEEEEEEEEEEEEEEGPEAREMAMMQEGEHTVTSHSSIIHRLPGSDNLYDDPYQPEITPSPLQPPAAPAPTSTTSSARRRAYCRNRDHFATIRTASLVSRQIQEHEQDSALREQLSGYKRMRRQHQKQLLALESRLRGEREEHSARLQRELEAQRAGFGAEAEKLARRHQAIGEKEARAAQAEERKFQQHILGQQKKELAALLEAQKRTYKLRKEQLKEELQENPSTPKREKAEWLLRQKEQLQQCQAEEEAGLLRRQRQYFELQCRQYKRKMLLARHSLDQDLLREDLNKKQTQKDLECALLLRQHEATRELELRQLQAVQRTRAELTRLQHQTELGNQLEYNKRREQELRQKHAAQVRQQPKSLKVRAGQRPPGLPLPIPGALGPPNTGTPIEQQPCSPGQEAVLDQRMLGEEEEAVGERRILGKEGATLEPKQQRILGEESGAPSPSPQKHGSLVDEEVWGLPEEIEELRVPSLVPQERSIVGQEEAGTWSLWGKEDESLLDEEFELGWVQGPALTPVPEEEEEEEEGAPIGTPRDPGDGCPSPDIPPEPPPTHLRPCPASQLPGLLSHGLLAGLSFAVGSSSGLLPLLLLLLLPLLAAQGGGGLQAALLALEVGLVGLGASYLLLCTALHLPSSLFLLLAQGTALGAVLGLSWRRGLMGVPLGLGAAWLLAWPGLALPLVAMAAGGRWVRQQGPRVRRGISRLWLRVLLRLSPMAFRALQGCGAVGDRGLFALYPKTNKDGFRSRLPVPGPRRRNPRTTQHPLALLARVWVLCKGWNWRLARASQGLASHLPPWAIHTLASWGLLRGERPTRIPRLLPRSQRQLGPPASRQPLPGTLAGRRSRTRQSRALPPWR
Sequence of SGKL (SGK3) (Q96BR1 whole entry): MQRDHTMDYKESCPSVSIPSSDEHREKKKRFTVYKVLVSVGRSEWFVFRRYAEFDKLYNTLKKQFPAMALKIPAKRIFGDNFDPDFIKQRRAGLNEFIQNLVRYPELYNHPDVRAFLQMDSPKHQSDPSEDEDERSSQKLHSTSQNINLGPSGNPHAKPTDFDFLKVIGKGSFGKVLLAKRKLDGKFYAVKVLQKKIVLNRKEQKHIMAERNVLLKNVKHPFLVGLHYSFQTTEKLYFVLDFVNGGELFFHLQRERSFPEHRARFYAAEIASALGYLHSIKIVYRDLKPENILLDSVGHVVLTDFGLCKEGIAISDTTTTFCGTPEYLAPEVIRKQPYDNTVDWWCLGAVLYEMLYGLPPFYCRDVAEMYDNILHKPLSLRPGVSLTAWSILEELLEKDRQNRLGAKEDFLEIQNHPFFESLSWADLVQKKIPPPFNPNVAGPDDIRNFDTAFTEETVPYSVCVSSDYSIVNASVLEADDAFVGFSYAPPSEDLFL

What is called inhibition is the change of the read-out against control, counted positive when it falls. In the case of `Cc1c(CCC(=O)O)c2cc(Br)ccc2n1C(=O)c1ccccc1` [IA107], the inhibition at 5 µM against IKBKB (IKK beta) is 4%; against RET, 9%; against RPS6KA3 (RSK2) it was 1%; at NTRK2 (TRKB), 5%; against EGFR (ErbB1), 5%; at SGKL (SGK3), 1%. Moreover, the inhibition at 5 µM is 2% at IKBKE (IKK epsilon); 7% at PRKCB1 (PKC beta I); 1% at KDR (VEGFR2); -4% against TAOK2 (TAO1); -8% against MAPK8 (JNK1); 5% at MAPKAPK2. Moreover, the inhibition at 5 µM against EPHB4 was found to be 3%.

Broadly, the IC50 is the concentration that gives 50% inhibition. Low readings indicate greater potency in that assay, high ones weaker potency in that assay. Consider `CCOC(=O)CCc1c(C)n(C(=O)c2ccccc2)c2ccc(Br)cc12` [IAPD1], for which the “effect on IRE1α transcription level” value in assay [1] is reported as “minimal impacts; also recorded: not affected”; in assay [2] it was “did not influence; also recorded: no obvious impact”. In assay [3], the “inhibition of ER stress-induced XBP1 mRNA splicing” value is recorded as “inhibited”. This molecule came in with an IC50 in assay [3] (Homo sapiens) of 220 nM.

The values above are taken from article PMC12475274, “Harnessing indole scaffolds to identify small-molecule IRE1α inhibitors modulating XBP1 mRNA splicing” (Nature Communications, 2025).
